Test results taken from patent US5677459A, “Methods for the preparation of modulators of acetylcholine receptors” (Sibia Neurosciences, Inc., priority 1995, dated 1997).
Like-named read-outs stand apart in the source and are kept apart here.

Columns and labels:
[1] = tested on: ^3 H-Norepinephrine release, rat hippocampus slices; assay: Ligand-stimulated ^3 H-norepinephrine release from rat hippocampus slices; format: cell-based
Procedure: (§1) Measurement of ^3 H-dopamine release from rat striatal slices was performed according to the method of Sacaan et al. (J. Neurochem. 59:245 (1992)). Male Sprague-Dawley rats (250-300 g) were decapitated and the striata or olfactory tubercles dissected quickly on a cold glass surface. The tissue was chopped to a thickness of 300 μm with a McIlwain tissue chopper. After chopping again at right angles the tissue was dispersed and incubated for 10 min. at 37° C. in oxygenated Kreb's buffer. ^3 H-Dopamine (40 Ci/mmol, NEN- Dupont, Boston, Mass.) was added (50 nM) and the tissue was incubated for 30 min. in Kreb's buffer containing 10 μM pargyline and 0.5 mM ascorbic acid. Aliquots of the minced tissue were then transferred to chambers of a Brandel Superfusion system in which the tissue was supported on Whatman GF/B filter discs. The tissue was then superfused with buffer at a constant flow rate of 0.3 ml/min by means of a Brandel peristaltic pump. The perfusate was collected in plastic scintillation vials in 3-min fractions, and the radioactivity was estimated by scintillation spectrophotometry. The superfusate for the first 120 min was discarded. After two baseline fractions had been collected, the superfusion buffer was switched to fresh buffer with or without compound of interest. At the end of the experiment the filter and the tissue were removed, and the radiolabeled neurotransmitter content was estimated after extraction into scintillation fluid. The fractional efflux of radiolabeled neurotransmitter was estimated as the amount of radioactivity in the perfusate fraction relative to the total amount in the tissue.
(§2) Following essentially the same procedure as set forth above, the amount of ^3 H-norepinephrine released from rat hippocampus, thalamus and prefrontal cortex slices superfused with buffer containing (or lacking) compounds of interest was also measured.
(§3) Results of studies of the effects of an invention compound (as compared to the effect of nicotine) on the release of neurotransmitters from rat brain slices are presented in Table II. Results presented in Part A of the Table are expressed as the percent fractional release and results presented in Part B of the Table are expressed as a percentage, relative to nicotine response.

rats = assay: Locomotor activity assay; format: in vivo, rat (male Sprague-Dawley); details: Rattus norvegicus, sc, 1 mg/kg salt, s.c.
Procedure: This assay can be used to assess the primary effect of a compound on general motor activity. A decrease in locomotor activity is indicative of a possible sedative effect on the animal, whereas an increase in locomotor activity is indicative of a stimulant effect on the animal.
Locomotor activity of rats (male Sprague-Dawley (Harlan) weighing 200-250 gm) was measured for 2 hrs in photocell cages immediately after administration of the invention compound. Prior to the test day, the animals were placed in the activity cages for 3 hrs to familiarize them with the experimental environment. On the test day, the animals were placed in the photocell cages and then injected with compound 1.5 hrs later.
The photocell cages were standard rodent cages (30 cm×20 cm×40 cm) with four infrared beams crossing the long axis. The animals were under no motivational constraints and were free to move around. Movements from one infrared beam to another (ambulation) were called "crossover"; successive interruptions of the same beam (vertical and other movements such as grooming) were called "general activity."

[2] = tested on: ^3 H-Norepinephrine release, rat thalamus slices; assay: Ligand-stimulated ^3 H-norepinephrine release from rat thalamus slices; format: cell-based; details: Nicotine concentration was 100 μM
Procedure: as §1, §2, §3

[3] = tested on: ^3 H-Dopamine release, rat striatal slices; assay: Ligand-stimulated ^3 H-dopamine release from rat striatal slices; format: cell-based
Procedure: as §1, §3

[4] = tested on: ^3 H-Norepinephrine release, rat prefrontal cortex slices; assay: Ligand-stimulated ^3 H-norepinephrine release from rat prefrontal cortex slices; format: cell-based; details: in vitro slices, 300 μM
Procedure: as §1, §2, §3

[5] = tested on: ^3 H-Dopamine release, rat olfactory tubercles; assay: Ligand-stimulated ^3 H-dopamine release from rat olfactory tubercles; format: cell-based; details: Nicotine concentration was 100 μM
Procedure: as §1, §3

[6] = tested on: rats with unilateral 6-hydroxydopamine lesions of the nigrostriatal dopamine pathway; format: in vivo, rat (male Sprague-Dawley); details: rat, in vivo
Procedure: Selective lesions of the brain dopamine pathway using the neurotoxin 6-hydroxydopamine (6-OHDA) in rats can be used as an experimental approach to Parkinson's disease. Unilateral lesions of the nigrostriatal dopamine pathway induce a postural asymmetry which becomes manifested as rotation when the animals are activated by dopamine releasers or dopamine agonists. When amphetamine and other stimulant drugs that induce pre-synaptic release of dopamine from intact nerve terminals are administered, the rats rotate in a direction ipsilateral to the lesion. In contrast, when the rats are injected with post-synaptic dopamine receptor agonists, such as apomorphine, they turn in a contralateral direction, due to the development of supersensitive dopamine receptors in the lesioned side. Thus, the 6-OHDA model can be used to determine if a suspected dopaminergic agent is active, and to differentiate whether such action is pre- or post-synaptic.
The effects of invention compounds on rotational behavior in 6-hydroxydopamine denervated rats were evaluated using the procedure of Ungerstedt and Arbutknott, Brain Res. 24:485-493 (1970). Male Sprague-Dawley rats (Zivic Miller) weighing 170-200 gm were used in the 6-OHDA procedure. The ascending nigrostriatal dopamine pathway was lesioned by unilateral stereotaxic injection of 6-OHDA (8.0 μg) into one substantia nigra. All injections of 6-OHDA were preceded by desmethylimipramine (25 mg/kg i.p.) and pargyline (75 mg/kg i.p.) approximately 30 minutes prior to undergoing stereotaxic surgery for 6-OHDA infusion into the substantia nigra. After one week of recovery from surgery, the effectiveness of the lesions was verified by noting the response of the animals to apomorphine (0.2 mg/kg, s.c.). Only rats with a minimum rate of 80 contralateral turns per 30 minutes (a sign of more than 80-90% dopamine depletion after a 6-OHDA lesion) were used. Two weeks later, the selected rats were tested with invention and reference compounds using an automated rotometer system to record the number and direction of rotations. In order to distinguish spontaneous (non-specific)rotations from induced rotations (specific to the effect of the drug), each rat was used as its own control, employing the following procedure:
The rat was placed in the rotometer system for acclimatation for 15 minutes, the vehicle administered subcutaneously, the rat's rotations recorded for one hour, then test compound was administered s.c. and rotations again recorded for one hour. The number of ipsilateral rotations induced by vehicle was then compared to the number of ipsilateral rotations induced by test compound. Statistical analysis of the data was carried out using Student's t-test (paired).

Q: With `CN1CCCC1c1cccnc1` (stereo not drawn) [Nicotine, nicotine, reference compound] as the compound, how does the Emax at 300 µM ([1]; Rattus norvegicus, nicotine 300 μM = 100, read-out: % of Nicotine Response, ^3 H-Norepinephrine, Hippocampus) read?
A: 100%

Q: And the “percent fractional release, ^3 H-Norepinephrine, Hippocampus” value ([1]; in vitro slices, 300 μM)?
A: 6.19%

Q: And the change in vivo at 1 mg/kg (rats; 1 h, 0-60 min, read-out: Ambulation (cross overs), percent of change from control)?
A: 169%

Q: What about the change in vivo at 1 mg/kg (rats; 1 h, 0-60 min, read-out: General Activity (beam breaks), percent of change from control) of the same compound?
A: 27%

Q: And the change in vivo at 1 mg/kg (rats; 2 h, 60-120 min, read-out: Ambulation (cross overs), percent of change from control)?
A: 163%

Q: What about the change in vivo at 1 mg/kg (rats; 2 h, 60-120 min, read-out: General Activity (beam breaks), percent of change from control) of the same compound?
A: 71%

Q: And the “percent fractional release, ^3 H-Norepinephrine, Thalamus” value [2]?
A: 1.83%

Q: What about the “percent fractional release, ^3 H-Dopamine, Striatum” value ([3]; Nicotine concentration was 100 μM) of the same compound?
A: 1.84%

Q: And the Emax at 10 µM ([3]; Rattus norvegicus, nicotine itself at 10 μM (reference), read-out: % of Nicotine Response, ^3 H-Dopamine, Striatum)?
A: 100%

Q: What about the “percent fractional release, ^3 H-Norepinephrine, Prefrontal Cortex” value [4] of the same compound?
A: 2.32%

Q: And the “percent fractional release, ^3 H-Dopamine, Olfactory Tubercles” value [5]?
A: 5.61%

Q: And the “Percent change from control (ipsilateral rotations)” value [6]?
A: +357
